Test results taken from patent publication US20130203718A1 (priority 2010, published 2013).
“Also recorded” adds a separate entry of the source.

Assays:
[1] = target: T1, hPRB (Homo sapiens, UniProt P06401); assay: PR transactivation assay (GRE2-Luc) in HEK293T cells transiently expressing hPRB; format: cell-based; parameters: expressed in transfected cells; host or cells: HEK 293T
T1 sequence (P06401 1-933): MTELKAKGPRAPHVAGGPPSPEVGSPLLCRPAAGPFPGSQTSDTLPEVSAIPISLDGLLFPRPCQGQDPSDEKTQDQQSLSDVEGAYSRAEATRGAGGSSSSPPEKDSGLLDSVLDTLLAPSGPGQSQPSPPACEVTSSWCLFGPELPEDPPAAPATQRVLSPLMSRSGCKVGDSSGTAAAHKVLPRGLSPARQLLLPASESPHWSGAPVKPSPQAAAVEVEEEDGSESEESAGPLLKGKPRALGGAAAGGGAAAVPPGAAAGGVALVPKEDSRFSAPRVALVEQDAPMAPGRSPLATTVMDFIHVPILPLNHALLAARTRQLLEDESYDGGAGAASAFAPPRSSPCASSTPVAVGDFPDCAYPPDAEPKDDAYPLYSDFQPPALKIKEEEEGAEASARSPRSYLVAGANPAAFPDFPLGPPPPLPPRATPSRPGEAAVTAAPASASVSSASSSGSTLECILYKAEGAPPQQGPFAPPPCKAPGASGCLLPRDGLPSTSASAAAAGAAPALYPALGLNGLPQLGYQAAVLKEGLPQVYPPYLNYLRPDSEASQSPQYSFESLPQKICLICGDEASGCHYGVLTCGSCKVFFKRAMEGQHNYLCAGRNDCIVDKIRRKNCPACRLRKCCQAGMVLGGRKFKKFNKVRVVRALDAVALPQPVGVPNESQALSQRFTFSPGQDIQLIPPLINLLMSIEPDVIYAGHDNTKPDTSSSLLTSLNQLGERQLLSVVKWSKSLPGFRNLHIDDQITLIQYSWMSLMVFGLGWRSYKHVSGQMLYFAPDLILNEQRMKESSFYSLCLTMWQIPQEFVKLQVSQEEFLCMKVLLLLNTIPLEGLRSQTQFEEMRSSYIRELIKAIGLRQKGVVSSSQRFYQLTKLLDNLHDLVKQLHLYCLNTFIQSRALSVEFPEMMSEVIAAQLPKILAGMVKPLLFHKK
Description: PR Transactivation Assays in HEK 293T.
HEK 293T cells were routinely cultured in a high-glucose DMEM medium (Invitrogene, Cergy Pontoise, France), 20 mM HEPES, 2 mM glutamine, 1× non essential amino acids, 100 U/mL penicillin and 100 μg/mL streptomycin supplemented with 10% foetal calf serum (FCS) in a humidified atmosphere at 37° C. and with 5% CO2. One day before transfection, the cells were seeded at 3×10^6 cells/[…] diameter culture Petri dish and cultured overnight in the same medium. Six hours before transfection, the FCS supplemented medium was replaced by the same medium supplemented with 10% dextran-charcoal treated FCS. Transfections were carried out using the calcium phosphate precipitation method. The calcium phosphate precipitate was prepared with 0.5 μg pchPRB (Petit-Topin, et al Mol Pharmacol, 2009, 75, 1317), 7 μg reporter vector (GRE2-Luc from A. Biola-Vidamment and M. Pallardy) and 1 μg of pcβgal for an internal transfection control, in 1 mL 140 mM NaCl, 0.75 mM Na2HPO4, 25 mM HEPES, 125 mM CaCl2 pH 7.05 and added to the cells 30 minutes later. After 16 h incubation, the transfected cells were washed with PBS containing 2.5 mM EDTA, trypsinized and pooled. The transfected cells were replated in 24-well plates (100.000 transfected cells/well). […] Cells were lysed in 300 μl PBS 1×, 25 mM glycylglycine, 4 mM EDTA, 15% glycerol, 1% triton X-100, 15 mM MgSO4, pH 7.8 supplemented with 2 mM β-mercaptoethanol. The luciferase activities were quantified by using a Mithras LB940 reader microplates (Berthold).
The APRn “agonist efficacy” was determined from the following formula:
Agonist efficacy=[luciferase activity]1/[luciferase activity]2×100
The APRn “antagonist efficacy” was calculated from the following formula:
Antagonist efficacy=100−[luciferase activity]1/[luciferase activity]2×100
The results are the mean±SEM of three to five independent experiments.
All the synthesized APRn were classified in 4 series depending on the nature of their C3 substituent (R1/R′1 groups). The first one (series 1) includes APRn with no C3 substituent (R1═R′1═H) whereas series 2, 3 and 4 are related to APRn bearing a methoxyl (R1═OMe), a hydroxyl (R1═OH) and a fluorine atom (R1═F), respectively. The agonist/antagonist activities of APRn were determined either in human HEK293T cells transiently expressing hPRB or in human MDA-MB-231 iPRAB cells conditionally expressing hPRB, by using a luciferase reporter gene placed under the control of a glucocorticoid response element (GRE2-Luc). The APRn “agonist efficacy” was determined from the luciferase activity measured in the presence of APRn (1 μM). […] The “agonist efficacy” and “antagonist efficacy” are expressed as defined in the biological protocols section.

[2] = series 2-4, stated for both HEK293T and MDA-MB-231 iPRAB cells, APRn 1 μM, FIGS. 3-8
[3] = series 1 (no C3 substituent), HEK293T, APRn 1 μM, FIG. 1

| Structure (SMILES) | melting point | hPRB agonist/antagonist character (in words) [1, 2] | hPRB agonist/antagonist character (in words) [1, 3] | further results |
| --- | --- | --- | --- | --- |
| CC1CCC2C3CCC4=CC(=O)CC[C@]4(C)C3CC[C@]2(C)[C@H]1F (stereo partly shown) | 170 to 171 °C |  |  |  |
| CO[C@H]1CC[C@@]2(C)C(=CC[C@H]3[C@@H]4CC[C@H](C(C)O)[C@@]4(C)CC[C@@H]32)C1 (mixture of isomers) [APR-27, 3β-Methoxypregn-5-en-20-ol] | 124 to 125 °C | antagonist character without any agonist activity |  |  |
| CO[C@H]1CC[C@@]2(C)[C@@H](CC[C@@H]3[C@@H]2CC[C@]2(C)[C@@H](C(C)O)CC[C@@H]32)C1 (mixture of isomers) [APR-28, 3β-Methoxy-5α-pregnan-20-ol] |  | antagonist character without any agonist activity |  |  |
| CC(O)[C@H]1CC[C@H]2[C@@H]3CC[C@H]4C[C@@H](O)CC[C@]4(C)[C@H]3CC[C@]12C (mixture of isomers) [APR-29, 5α-Pregnan-3β,20-diol] |  | able to activate hPRB, but their agonist efficacies are low |  |  |
| CC1CCC2C3CCC4=CC(O)CC[C@]4(C)C3CC[C@]2(C)[C@H]1F (single isomer, unassigned) [APR-07, 17aβ-Fluoro-17α-methyl-D-homo-pregn-4-en-3-ol] | 125 to 126 °C | most potent hPRB antagonist in this series |  |  |
| CC(=O)[C@H]1CC[C@H]2[C@@H]3CC[C@H]4CCCC[C@]4(C)[C@H]3CC[C@]12C [APR-01, 5α-pregnan-20-one] |  |  | partial hPRB agonist | antagonist efficacy ([1]; HEK293T, APRn 1 μM plus progesterone 1 nM, FIG. 1): 48%; efficacy to activate hPRB (agonist efficacy) ([1]; HEK293T, APRn 1 μM, relative to 1 nM progesterone, FIG. 1): 30% |
| CO[C@H]1CC[C@@]2(C)C(=CC[C@H]3[C@@H]4CC[C@H](C(C)=O)[C@@]4(C)CC[C@@H]32)C1 [APR-02, 3β-Methoxypregn-5-en-20-one] |  | most potent molecules |  | hPRB agonist/antagonist character (in words) ([1]; series 2-4, stated for both HEK293T and MDA-MB-231 iPRAB cells, APRn 1 μM, FIGS. 3-8, listed as APR2): antagonist character without any agonist activity |
| CC1CCC2C3CC=C4CC5(CC[C@]4(C)C3CC[C@]2(C)[C@H]1F)OCCO5 (stereo partly drawn) [APR-05, 17aβ-Fluoro-17α-methyl-D-homo-3-ethylenedioxo-5-androstene] | 146 to 147 °C |  |  |  |
| CC1CCC2C3CC=C4C=CCC[C@]4(C)C3CC[C@]2(C)[C@H]1F (stereo partly drawn) [APR-08, 17aβ-Fluoro-17α-methyl-D-homo-pregn-3,5-diene] |  |  | partial antagonist | hPRB agonist/antagonist character (in words) ([1]; series 1 (no C3 substituent), HEK293T, APRn 1 μM, FIG. 1, listed as APR-8): full antagonists |
| C[C@H](O)[C@H]1CCC2C3CCC4CCCC[C@]4(C)C3CC[C@@]21C (stereo partly shown) [APR-10, 20-Hydroxypregnane] |  |  | full antagonists |  |
| C[C@H](O)[C@H]1CCC2C3CC=C4C=CCC[C@]4(C)C3CC[C@@]21C (stereo partly shown) [APR-11, pregn-3,5-dien-20-ol] | 103 to 104 °C |  | full antagonists |  |
| CC(=O)[C@H]1CC[C@H]2[C@@H]3CC=C4C=CCC[C@]4(C)[C@H]3CC[C@]12C [APR-12, Pregn-3,5-dien-20-one] | 135 to 136 °C |  | partial antagonist |  |
| CC(=O)O[C@@H](C)[C@H]1CC[C@H]2[C@@H]3CC[C@H]4CCCC[C@]4(C)[C@H]3CC[C@]12C [APR-13, 20-Acetoxy-5α-pregnane] |  |  | full antagonists |  |
| C[C@]12CCCC[C@@H]1CC[C@@H]1[C@@H]2CC[C@]2(C)[C@@H](O)CC[C@@H]12 [APR-14, 5α-Androstan-17β-ol] |  |  | full antagonists |  |
| CC(=O)[C@H]1CC[C@H]2[C@@H]3CC=C4C[C@@H](O)CC[C@]4(C)[C@H]3CC[C@]12C [APR-15, 3β-Hydroxypregn-5-en-20-one] |  | able to activate hPRB, but their agonist efficacies are low |  |  |
| CC(=O)[C@H]1CC[C@H]2[C@@H]3CC[C@H]4C[C@@H](O)CC[C@]4(C)[C@H]3CC[C@]12C [APR-20, 3β-Hydroxy-5α-pregnan-20-one] |  | able to activate hPRB, but their agonist efficacies are low |  |  |
| C#CC(C)(O)[C@H]1CC[C@H]2[C@@H]3CC=C4C[C@@H](F)CC[C@]4(C)[C@H]3CC[C@]12C (stereo partly drawn) [APR-21, 20-Ethynyl-3β-fluoropregn-5-en-20-ol] | 213 to 214 °C |  |  |  |
| CO[C@H]1CC[C@@]2(C)[C@@H](CC[C@@H]3[C@@H]2CC[C@]2(C)[C@@H](C(C)=O)CC[C@@H]32)C1 [APR-22, 3β-Methoxy-5α-pregnan-20-one] | 125 to 126 °C | antagonist character without any agonist activity; also recorded: most potent molecules |  |  |
| C[C@H](O)[C@H]1CC[C@H]2[C@@H]3CC=C4C[C@@H](F)CC[C@]4(C)[C@H]3CC[C@]12C [APR-24, 3β-Fluoropregn-5-en-20-ol] |  | efficient hPRB antagonists |  |  |
| C#CC(C)(O)[C@H]1CC[C@H]2[C@@H]3CC[C@H]4C[C@@H](F)CC[C@]4(C)[C@H]3CC[C@]12C (stereo partly drawn) [APR-26, 20-Ethynyl-3β-fluoro-5α-pregnan-20-ol] | 230 to 231 °C |  |  |  |
| C#CC(C)(O)[C@H]1CC[C@H]2[C@@H]3CC[C@H]4C[C@@H](OC)CC[C@]4(C)[C@H]3CC[C@]12C (stereo partly drawn) [APR-30, 20-Ethynyl-3β-methoxy-5α-pregnan-20-ol] | 168 to 169 °C |  |  |  |
| C[C@]12CC[C@H]3[C@@H](CC=C4C[C@@H](F)CC[C@@]43C)[C@@H]1CC[C@@H]2O [APR-41, 3β-Fluoro-androst-5-en-17β-ol] | 165 to 166 °C |  |  |  |
| C[C@]12CCC3C(CC=C4C[C@@H](O)CC[C@@H]43)C1CC[C@@H]2O (stereo partly drawn) [APR-48, 19-nor-Androst-5-en-3β,17β-diol] |  | Except for APR48, the molecules of this series behave as antagonists |  |  |
| C[C@]12CCC3C(CC[C@H]4CCCC[C@H]34)C1CC[C@@H]2O (stereo partly drawn) [APR-52, 19-nor-5-Androstan-17β-ol] |  |  | full antagonists |  |
| C#C[C@]1(O)CCC2C3CC[C@H]4CCCC[C@@H]4C3CC[C@@]21C (stereo partly drawn) [APR-56, 17α-Ethynyl-19-nor-5-androstan-17β-ol] |  |  | full antagonists |  |
